In article PMC7564282, “Juniperonic Acid Biosynthesis is Essential in Caenorhabditis elegans Lacking Δ6 Desaturase (fat-3) and Generates New ω-3 Endocannabinoids” (Cells, 2020):

Columns and labels:
NPR-19 = experiment: [3H]CP55,940 binding normalized against NPR-19 null mutant npr-19(ok2068); design: species or system C. elegans; settings: no saturation binding curve (data not shown)
Protocol: (§1) Briefly, 75 μg of crude membrane preparations were resuspended in 300 μL of assay buffer (50 mM Tris-HCl, 2.5 mM EDTA, 5 mM MgCl2, 0.5% BSA, pH 7.5) in silanized glass tubes and preincubated with 5 µM JZL-195 for 30 min at 30 °C. […] CP55,940 for 75 min at 30 °C. After the incubation time, membrane suspensions were rapidly filtered through a 0.1% polyethyleneimine presoaked 96-well microplate bonded with GF/B glass fiber filters (UniFilter-96 GF/B, PerkinElmer Life Sciences) under vacuum and washed 12 times with 120 µL of washing buffer (50 mM Tris-HCl, 2.5 mM EDTA, 5 mM MgCl2, 0.5% BSA, pH 7.5). Filters were added with 50 µL of MicroScint20 scintillation liquid, and radioactivity was measured with the 1450 MicroBeta Trilux top counter (PerkinElmer Life Sciences). The results were analyzed with GraphPad Prism 5® and expressed as % of [^3H]CP55,940 binding. IC50 values of each compound were estimated from fitted nonlinear curves and were used to calculate the Ki values by applying the Cheng-Prusoff equation. Specific binding was determined using the npr-32(ok2541) mutant strain in which saturation binding was abolished. Importantly, normalizing against the NPR-19 null mutant strain- npr-19(ok2068), no saturation binding curve could be achieved.

NPR-32 = biological target: T1, NPR-32 (Caenorhabditis elegans, UniProt O62403); experiment: Saturation binding of [3H]CP55,940 to NPR-32 receptors; design: species or system C. elegans; settings: saturation binding curve, worm membranes, read-out: apparent Kd
T1 sequence (O62403 1-440): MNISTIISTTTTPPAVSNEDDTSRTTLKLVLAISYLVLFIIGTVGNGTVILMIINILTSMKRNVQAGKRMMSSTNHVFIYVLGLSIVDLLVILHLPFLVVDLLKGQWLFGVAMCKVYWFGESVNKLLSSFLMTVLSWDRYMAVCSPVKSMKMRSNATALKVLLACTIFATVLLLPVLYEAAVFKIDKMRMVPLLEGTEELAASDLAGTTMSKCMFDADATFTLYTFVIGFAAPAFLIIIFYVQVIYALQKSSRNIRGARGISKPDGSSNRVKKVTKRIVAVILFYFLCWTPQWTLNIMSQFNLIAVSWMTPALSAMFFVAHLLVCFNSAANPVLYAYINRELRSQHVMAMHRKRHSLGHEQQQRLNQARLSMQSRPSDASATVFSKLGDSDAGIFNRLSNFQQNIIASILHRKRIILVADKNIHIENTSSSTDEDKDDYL
Protocol: as §1
However, no binding or other direct interactions between AEA and these GPCRs were reported. […]

CCCCCCC(C)(C)c1ccc([C@@H]2C[C@H](O)CC[C@H]2CCCO)c(O)c1 [CP55,940]
binding to NPR-19 (NPR-19): did not bind | Kd (NPR-32): 2.5 ± 1.8 nM
